# Key:
# [1] = In vivo safety study, single 100 mg/kg i.v. dose in BALB/c nude mice
# Description: (§1) Safety of the liposomes in vivo was evaluated by blood biochemical analysis, H&E staining and Masson staining of tissues. Briefly, following i.v. administration of normal saline, LP, API-1 or API-LP in the BALB/c nude mice, the peripheral blood samples were collected using heparin and centrifuged for serum biochemical analysis. The tissue samples were simultaneously excised and fixed in 4% PFA. Blood ALT, AST, TBIL, ALB, UREA and total protein analyses were performed using BioAssay Systems blood chemistry assay kits following the manufacturer's instructions. The tissue samples were embedded in paraffin, then cut into 5 μm thick paraffin sections and subsequently placed on glass slide. The slides were stained with H&E. The histopathological alterations were observed and imaged with a light microscope (OLYMPUS BX43).
# [2] = system: XPO5; assay: XPO5 subcellular distribution (confocal imaging, fractionation and Western blotting); format: cell-based, human; conditions: 1 μM, SK-Hep1
# Description: SK-Hep1 cells cultured on glass coverslips after different treatments were fixed in 4% PFA for 20 min, permeabilized with 0.5% Triton X-100 for 10 min, blocked with 5% BSA, and then incubated with primary anti-XPO5 antibody at 4 °C overnight, followed by incubation with Alexa Fluor dye- conjugated secondary antibodies for 1 h. Then the nuclei were stained with DAPI for 5 min at room temperature before mounting in Immu-Mout (Thermo fisher). Confocal fluorescence images were captured using Leica TCS SP5 II confocal spectral microscope.
# For total protein preparation, cells were lysed on ice for 20 min in the RIPA lysis buffer (Beyotime) with protease inhibitor cocktail (Bimake), followed by centrifugation at 12000 rpm for 10 min at 4 °C. The resultant proteins in the supernatants were stored at -80 °C or directly subjected to SDS-PAGE. For nuclear-cytoplasmic fractionation of proteins, RLN buffer (5 mM Tris-HCl pH 7.4, 1.5 mM MgCl2, 140 mM NaCl, 0.5% NP-40) was freshly prepared when used. SK-Hep1 cells were harvested and gently resuspended in 200 µL RLN buffer with protease inhibitor cocktail, followed by centrifugation at 300 g for 2 minutes at 4 °C, the resultant supernatants are the cytoplasmic proteins. […] The signals were detected using ECL reagents (Life Technologies).
# [3] = In vitro drug release by dialysis at pH 7.4; format: physicochemical; conditions: PBS pH 7.4 with 0.5% Tween-80, 37 °C
# Description: In vitro release of API-1 from API-LP was investigated in a simulated blood pH environment (pH 7.4). Briefly, 1 mL API-LP diluted ten times in advance was used to determine the initial API-1 concentration, and the remaining 9 mL was dialyzed in a dialysis bag (3500 Da) in 50 mL PBS (pH 7.4) containing 0.5% Tween-80. The experiment was performed in triplicate at 37°C with shaking at 100 rpm for one week. Samples were withdrawn at prescheduled sampling time points and replaced with the same volume of release buffer each time. The samples were quantified by high performance liquid chromatography (HPLC).
# [4] = Blood biochemistry and hepatic histopathology in tumor-bearing mice after multiple dosing; format: in vivo; conditions: 4 mg/kg i.v. once every two days
# Description: as §1
# In order to facilitate the judgment of the positivity and degree of hepatic injury of mice, an ace hepatic injury mice model was built by treating mice with tetracycline by gavage at dose of 500 mg/kg. Mice were fasted after oral tetracycline for 30 h and then were executed. The serum ALT, AST, TBIL and hepatic histopathological examinations were performed to evaluate liver injuries.
# The experimental tissues were fixed with formalin and embedded in paraffin. Sections with 5 μm in thickness were prepared for H&E staining, Masson staining and immunostaining with anti-RIP3 antibody (Abcam). The images were acquired on an Olympus digital camera attached to a light microscope.
# [5] = system: SK-Hep1 tumors; design: method as in PMID 29381806; conditions: free API-1, mice, ref [15]; cited from earlier work
# [6] = system: SK-Hep1 cells; assay: MTT cell viability assay; format: cell-based, human; conditions: 72 h
# Description: MTT assay was conducted to estimate cell viability. Briefly, SK-Hep1 cells were seeded in a 96-well culture plate (2000 cells/well) and then treated with different concentrations of API-LP or free API-1 at 72 h in a 5% CO2 incubator for indicated time. At the end of incubation, 10 µL of MTT solution (5 mg/mL) was added into each well. After a 3 h incubation, DMSO (100 μL) was added to dissolve the resultant purple formazan crystals. The absorbance was measured at 570 nm on Thermo Scientific Varioskan Flash Multimode Reader.
# [7] = system: SK-Hep1 tumors; assay: SK-Hep1 xenograft in BALB/c nude mice; format: in vivo
# Description: SK-Hep1 cells during the exponential-growth phase were collected and suspended in saline solution containing 50% Matrigel (Corning) at 5 × 10^7/mL. Then 100 μL of cells were injected into female BALB/c nude mice (5 weeks old) subcutaneously. Tumor growth was recorded every 3 days, and the tumor volume was calculated as ab^2/2 (a, long diameter; b, short diameter). All mice were randomized into 4 groups (8 mice per group) when the tumor volume reached 150-200 mm^3 and then were intravenously injected with normal saline, LP, free API-1 or API-LP at the 4 mg/kg dosage once every two days. At the end of the treatment, tumors were removed from mice and RNAs were extracted for miRNA detection.
# Quantitative RT-PCR was used to assess miRNA expression levels. Total RNAs were extracted by TRIzol reagent (Invitrogen) from cells and transcribed by M-MLV reverse transcriptase (Invitrogen). Hairpin-it^TM real-time PCR miRNA kit for miR-122, let-7a, miR-29b and miR-146a were purchased from Shanghai GenePharma Co., Ltd (China). The miRNA levels were determined by Applied Biosystems StepOne Plus Real-Time PCR Systems using SYBR green master mix (Thermo fisher). Small endogenous nucleolar U6 RNA was used as internal control for miRNA normalization.
# [8] = Pharmacokinetic study in BALB/c mice; format: in vivo; conditions: 10 mg/kg i.v.
# Description: The pharmacokinetic performance of API-LP was assessed in BALB/c mice. Following overnight fasting, six mice were randomized into two groups and received i.v. injection of free API-1 in 1 × PBS (pH 7.4) with 5% DMSO and API-LP in 1 × PBS (pH 7.4), respectively, at 10 mg/kg dose. At the prescheduled sampling time points, 20 μL blood samples were collected through caudal vein bleeding into heparinized centrifuge tube, followed by the centrifugation to obtain plasma, which was then stored at -80 °C until determination of the drug concentration.
# For API-1 quantitation, plasma samples were thawed to room temperature. API-1 was extracted using acetonitrile and quantified by HPLC with QTRAP 5500 tandem mass spectrometry (LC/MS/ MS) system. The pharmacokinetic parameters based on the measured concentrations were calculated using GraphPad Prism (GraphPad Software).
# [9] = 4 mg/kg i.v. once every two days, SK-Hep1 xenograft
substance,measurement,setting,value
API-1,haematological or liver toxicity (blood biochemistry),[1],neither free API-1 nor API-LP had haematological or liver toxicity
same,nucleus-to-cytoplasm export of XPO5,[2],restored the export of XPO5 to cytoplasm
same,release in the first 12 h of dialysis,[3],81.6%
same,ALT Mean,[4],39.67 U/L
same,AST Mean,[4],133.67 U/L
same,TBIL Mean,[4],1.70 µmol/L
same,efficacious dose to suppress HCC tumor growth in mice,[5],5 mg/kg
same,inhibition of SK-Hep1 cell proliferation (MTT),[6],inhibited SK-Hep1 cell proliferation in a dose-dependent manner
same,body weight,[7]; [9],did not impact body weight
same,tumor growth and tumor volume,[7]; [9],significantly suppressed tumor growth and reduced tumor volume
same,biogenesis of mature miRNAs in tumor tissues,"[7]; 4 mg/kg, SK-Hep1 tumor tissues, real-time PCR","significantly increased biogenesis of miR-122, let-7a, miR-29b and miR-146a"
same,API-1 plasma concentration at 24 h postdose,[8],34.8 ng/mL
same,Clearance,[8]; n=3,72.75 ± 3.93 mL/h
same,Half-life t1/2,[8]; n=3,6.31 ± 0.66 h

# Reference: publication PMC6643437, “MicroRNA Biogenesis is Enhanced by Liposome-Encapsulated Pin1 Inhibitor in Hepatocellular Carcinoma” (Theranostics, 2019)
